Experimental data: patent publication US8399520B2, “Selective estrogen receptor modulator” (Eisai R&D Management Co., Ltd., priority 2002, dated 2013)

Experiments:
[1] = biological target: T1, estrogen receptor derived from bovine uterus (Bos taurus, UniProt P49884); assay: In vitro estrogen receptor binding assay; settings: read-out: Estrogen receptor binding affinity: Ki
T1 construct: estrogen receptor derived from bovine uterus was diluted with the assay buffer solution so that 10 to 20 μg total protein was present; from tissue; host or cells: bovine uterus
T1 sequence (P49884 1-596): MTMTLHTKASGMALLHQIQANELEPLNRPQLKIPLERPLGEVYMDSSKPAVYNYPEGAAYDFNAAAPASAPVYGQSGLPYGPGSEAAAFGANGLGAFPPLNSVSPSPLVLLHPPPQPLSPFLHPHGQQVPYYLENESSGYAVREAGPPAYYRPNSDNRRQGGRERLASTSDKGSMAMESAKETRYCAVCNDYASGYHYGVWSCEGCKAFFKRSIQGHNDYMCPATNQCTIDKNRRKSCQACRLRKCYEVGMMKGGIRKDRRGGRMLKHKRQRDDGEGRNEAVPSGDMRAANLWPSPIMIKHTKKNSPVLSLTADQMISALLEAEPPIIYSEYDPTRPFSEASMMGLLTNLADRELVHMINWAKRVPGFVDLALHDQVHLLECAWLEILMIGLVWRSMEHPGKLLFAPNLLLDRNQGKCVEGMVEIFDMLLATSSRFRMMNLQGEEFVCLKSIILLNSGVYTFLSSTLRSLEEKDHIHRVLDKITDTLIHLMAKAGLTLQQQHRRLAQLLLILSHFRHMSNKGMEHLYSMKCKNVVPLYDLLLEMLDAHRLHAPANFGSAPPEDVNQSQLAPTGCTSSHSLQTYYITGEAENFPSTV
Procedure: The binding affinity of the compound according to the present invention to estrogen receptor was measured using an in vitro estrogen receptor binding assay. The binding affinity measures the ability of the compound according to the present invention to remove [^3H]-estradiol from estrogen receptor derived from bovine uterus. The following materials were used in this assay: (1) the assay buffer solution was 20 mM Tris/HCl (pH 7.5) containing 1 mM dithiothreitol (DTT), 1 mM EDTA and 10% glycerol; (2) radioactive ligand was [^3H]-estradiol purchased from Amersham Life Science; (3) the cold ligand was diethylstilbestrol purchased from sigma (Sigma); and (4) the estrogen receptor was derived from bovine uterus. The compound to be tested was prepared as a 10% DMSO solution. [^3H]-estradiol was dissolved in the assay buffer solution so as to obtain a final concentration of 1 nM. […] Each plate contains total binding, non-specific binding and the binding which were not inhibited by various concentrations of the compound. The plate was incubated for 1 hour at room temperature. […] These mixtures were centrifuged, and the supernatant thereof was evaluated for its radioactivity using a liquid scintillation counter. Specific binding was calculated by subtracting non-specific binding dpm (counts remaining in the supernatant obtained by centrifugal separation of a reaction mixture containing estrogen receptor derived from bovine uterus, radioactive ligand and excess cold ligand) from the total binding dpm (counts remaining in the supernatant obtained by centrifugal separation of a reaction mixture containing estrogen receptor derived from bovine uterus and radioactive ligand only). The effectiveness of the compound was evaluated by Ki. […] C is the concentration of [^3H]-estradiol in the reaction mixture, and Kd is the [^3H]-estradiol dissociation constant. The Kd was determined by Scatchard analysis. That is to say, various concentrations of [^3H]-estradiol were used to measure the concentration of specifically bound [^3H]-estradiol, which served as the horizontal axis, the value which was obtained by dividing the concentration of specifically bound [^3H]-estradiol by the concentration [^3H]-estradiol not bound to the receptor served as the vertical axis to produce a plot, and the negative value of the inverse of the slope of the resulting straight line was used as Kd.

[2] = tested on: MCF-7 breast cancer cells; assay: MCF-7 growth analysis (estrogen agonist and antagonist activity, MTT assay); assay type: cell-based; settings: Homo sapiens; for activity at 0.1 µM: MCF7, MCF-7, 72 hours, growth rate of diluent control = 100, of 17β-estradiol (1 nM) = 200, read-out: Agonist activity: growth rate (100 nM test compound); for IC50: MCF7, MCF-7 growth with 17β-estradiol (10 pM) present simultaneously, 72 hours
Procedure: Test Example 2 determines the estrogen agonist and antagonist activities of the compound according to the present invention in reproduction system cells. […] The present test was carried out according to the following procedures. MCF-7 breast cancer cells were cultured in the preservation medium until the compound evaluation. The preservation medium is the MEM (minimum essential medium, phenol red-free, Gibco, ##51200-038) supplemented with 10% (volume/volume) fetal bovine serum (FBS), 2 mM L-glutamine, 1 mM sodium pyruvate, non-essential amino acids (0.1 mM, Gibco, #15240-062), and antibiotic-antimycotic solution ( 1/50 of culture medium volume, Gibco). Five days prior to analysis, the preservation medium was exchanged with analytical medium to which 10% charcoal-stripped fetal bovine serum (charcoal-FBS) was added instead of 10% FBS, so as to deprive the MCF-7 cells of endogenous steroids. Twenty-four hours after exchange to the analytical medium, the MCF-7 cells were removed from the preservation flask using cell isolation medium (trypsin-EDTA solution, Gibco). The cells were washed with analytical medium once, and cell suspension at 50,000 cell/ml was prepared using the analytical medium. The prepared cell suspension was added to a 96 well flat-bottomed microculture at […] (5,000 cells) per well, the cells were cultured in a 5% CO2 incubator for 24 hours at 37° C., to equilibrate the cells after cell transfer. […] The cells were further cultured in the 5% CO2 incubator for 72 hours at 37° C. After culturing, the cell growth was examined by the MTT assay. MTT assay was carried out as the following protocols. MTT solution at 8 mg/ml (MTT dissolved in phosphate saline water buffer) was added to the microculture at 10 μl/well, and the cells were cultured in the 5% CO2 incubator for 30 minutes at 37° C. Thereafter, resulting from the reduction of MTT by the cells, formazan crystals were dissolved by adding a dissolution buffer (400 g/l of an aqueous solution of SDS (50%) and dimethylformamide (50%)) to the microculture at 100 μl/well, and incubated the microculture for more than 4 hours in the dark. For each well of the microculture, the optical density at 590 nm due to the dissolved formazan crystals was measured.

ovariectomized rats [3] = assay: Bone resorption in ovariectomized rats: deoxypyridinoline in urine; assay type: in vivo, rat; settings: OVX rats, urine
Description: (§1) Ten weeks old Female Fischer rats (F344/N, Japan SLC, Shizuoka, Japan) were used. Rats were grouped to eliminate the effect of body weight between each group and housed with free access to food and water. Animals were anesthetized with Nembutal (Abbott Laboratories, Chicago, Ill.) and the ovaries were removed. In sham-operated group, ovaries were only touched with tweezers. Administration of compounds was started one day after the operation.
(§2) Estradiol (Sigma-Aldrich, St. Louis, Mo.) was dissolved in DMSO to 150 mg/mL then diluted with sesame oil to 0.15 mg/mL. The compounds in Examples 736 and 814, and Raloxifene were suspended in sesame oil to 5, 5 and 1.5 mg/mL, respectively. Samples were divided into aliquots for daily administration and preserved at −18° C. until use.
(§3) The samples were orally administered at 2 mL/kg. Administration was carried out once a day from Monday to Friday for 8 weeks.
Urine was gathered overnight (17 hours) using the metabolic cage under fasting. The amount of urinary deoxypyridinoline was measured with ELISA kit, Osteorincs-DPD (Sumitomo Seiyaku Biomedical Co., Ltd., Osaka, Japan) and evaluated as total amount produced in 17 hours or as the amount per 1 mg of creatinine.

ovariectomized rats [4] = assay: Ovariectomized rats: bone density of femur and fifth lumbar vertebrae; assay type: in vivo, rat; settings: OVX rats, 8 weeks
Description: as §1, §2, §3
After animals were sacrificed by decapitation, left femur and the fifth lumbar vertebrae were removed. The bone density was measured by using QDR-1000/W (Ho logic Inc., Bedford, Mass.).

ovariectomized rats [5] = assay: Ovariectomized rats: uterus wet weight; assay type: in vivo, rat
Description: as §1, §2, §3
After animals were sacrificed by decapitation, uterus was removed and adipose tissue and vagina was separated from uterus prior to uterus weight measurement.

[6] = 3 mg/kg orally once a day Monday to Friday
[7] = 0.3 mg/kg orally once a day Monday to Friday

Row | SMILES | Ki [1] | activity at 0.1 µM [2] | IC50 [2] | also measured
1 | CCN(Cc1ccc(CCN2CCCCCC2)cn1)c1cc(OC)c(OC)cc1C1CCc2cc(O)ccc2C1 (stereo not shown) [Example 255, 6-{2-{[5-(2-Azepan-1-ylethyl)pyridin-2-ylmethyl]ethylamino}-4,5-dimethoxyphenyl}-5,6,7,8-tetrahydronaphthalen-2-ol] | 1.4 nM | 106% | 1.4 nM | –
2 | CC/C(=C(\c1ccccc1)c1ccc(OCCN(C)C)cc1)c1ccccc1 [Comparative Example, Tamoxifen, reference compound] | – | 133% | – | –
3 | CCN(Cc1ccc(OCCN2CCCCCC2)nc1)c1cc(OC)ccc1[C@@H]1CCc2cc(O)ccc2C1 [Example 228, (R)-6-{2-{[6-(2-Azepan-1-ylethoxy)pyridin-3-ylmethyl]ethylamino}-4-methoxyphenyl}-5,6,7,8-tetrahydronaphthalen-2-ol] | 2.3 nM | 101% | 2.62 nM | –
4 | O=C(c1ccc(OCCN2CCCCC2)cc1)c1c(-c2ccc(O)cc2)sc2cc(O)ccc12 [Raloxifene, 6-hydroxy-2-(4-hydroxyphenyl)-3-[4-(2-piperidinoethoxy)benzoyl]benz[b]thiophene, reference compound] | – | – | – | Deoxypyridinoline, 5 weeks (ovariectomized rats [3]; [6]): 8.83 ± 0.41 nM/mg/dl; Deoxypyridinoline, 8 weeks (ovariectomized rats [3]; [6]): 10.87 ± 1.16 nM/mg/dl; Bone Mineral Density, Distal femur (ovariectomized rats [4]; 3 mg/kg orally): 0.254 ± 0.002 g/cm^2; Bone Mineral Density, Lumber 5 (ovariectomized rats [4]; 3 mg/kg orally): 0.160 ± 0.003 g/cm^2; Bone Mineral Density, Whole femur (ovariectomized rats [4]; 3 mg/kg orally): 0.239 ± 0.002 g/cm^2; Effect on uterus wet weight (in words) (ovariectomized rats [5]; rat, in vivo): slightly increased uterus wet weight to the same level
5 | CCN(Cc1ccc(OCCN2CCCCCC2)cc1)c1cc(O)ccc1[C@@H]1CCc2cc(O)ccc2C1 [190 (R), (R)-6-{2-{[4-(2-azepan-1-ylethoxy)benzyl]ethylamino}-4-hydroxyphenyl}-5,6,7,8-tetrahydronaphthalen-2-ol] | 1 nM | 124% | 7.95 nM | –
6 | C[C@]12CC[C@@H]3c4ccc(O)cc4CC[C@H]3[C@@H]1CC[C@@H]2O [Estradiol, reference compound] | – | – | – | Deoxypyridinoline, 5 weeks (ovariectomized rats [3]; [7]): 12.06 ± 1.60 nM/mg/dl; Deoxypyridinoline, 8 weeks (ovariectomized rats [3]; [7]): 11.61 ± 2.10 nM/mg/dl; Bone Mineral Density, Distal femur (ovariectomized rats [4]; 0.3 mg/kg orally): 0.250 ± 0.001 g/cm^2; Bone Mineral Density, Lumber 5 (ovariectomized rats [4]; 0.3 mg/kg orally): 0.150 ± 0.005 g/cm^2; Bone Mineral Density, Whole femur (ovariectomized rats [4]; 0.3 mg/kg orally): 0.237 ± 0.001 g/cm^2; Uterus (wet weight) (ovariectomized rats [5]; OVX rats, 0.3 mg/kg orally, 8 weeks): 0.213 ± 0.013 g
7 | CCOCCN(C)CCOc1ccc(CN(CC)c2cc(OC)ccc2[C@@H]2CCc3cc(O)ccc3C2)cc1 [Example 618, (R)-6-{2-{{4-{2-[(2-Ethoxyethyl)methylamino]ethoxy}benzyl}ethylamino}-4-methoxyphenyl}-5,6,7,8-tetrahydronaphthalen-2-ol] | 2.9 nM | 96% | 2.9 nM | –
8 | CCN(Cc1ccc(CCN2CCCCCC2)s1)c1cc(OC)c(OC)cc1[C@@H]1CCc2cc(O)ccc2C1 [Example 259, (R)-6-{2-{[5-(2-Azepan-1-ylethyl)thiophen-2-ylmethyl]ethylamino}-4,5-dimethoxyphenyl}-5,6,7,8-tetrahydronaphthalen-2-ol] | 2.8 nM | 103% | 4.12 nM | –
9 | CCN(Cc1ccc(CCN(C)C)cc1)c1cc(OC)c(OC)cc1[C@@H]1CCc2cc(O)ccc2C1 [Example 741, (R)-6-{2-{[4-(2-Dimethylaminoethyl)benzyl]ethylamino}-4,5-dimethoxyphenyl}-5,6,7,8-tetrahydronaphthalen-2-ol] | 0.2 nM | 98% | 2.06 nM | –
10 | CCN(Cc1ccc(OCCN2CCCCC2)c(F)c1)c1cc(O)ccc1[C@@H]1CCc2cc(O)ccc2C1 [188 (R), (R)-6-{2-{ethyl-[3-fluoro-4-(2-piperidin-1-ylethoxy)benzyl]amino}-4-hydroxyphenyl}-5,6,7,8-tetrahydronaphthalen-2-ol] | 1.2 nM | – | – | –
11 | ON=C1CCc2cc(-c3ccc(O)cc3Nc3ccc(OCCN4CCCCC4)cc3)ccc21 [Example 327, 5-{4-Hydroxy-2-[4-(2-piperidin-1-ylethoxy)phenylamino]phenyl}indan-1-one oxime] | 42 nM | – | – | –
12 | Oc1ccc2c(c1)CCC(c1ccc(O)cc1N(Cc1ccc(OCCN3CCCCCC3)cc1)CC(F)(F)F)C2 (stereo not shown) [Example 179, 6-{2-{[4-(2-Azepan-1-ylethoxy)benzyl](2,2,2-trifluoroethyl)amino}-4-hydroxyphenyl}-5,6,7,8-tetrahydronaphthalen-2-ol] | 9 nM | – | – | –
